# Values quoted from earlier work in patent publication US20160045465A1, “THERAPEUTIC FORMULATIONS FOR THE TREATMENT OF COLD AND FLU-LIKE SYMPTOMS” (Kingsway Pharmaceuticals Inc., priority 2007, published 2016).
# Where a name gives a salt, the structure may show the parent alone. Read-outs that look alike come from different tables or passages of the source.
# Experiments:
# [1] = in vivo
# [2] = not given; remark: listed apart in the source
# [3] = children, ibuprofen suspension, oral
# [4] = oral, 30 mg as tablets or oral solution
smiles,measurement,setting,value
"CC(=O)Nc1ccc(O)cc1 [acetaminophen, N-(4-hydroxyphenyl)ethanamide]","fraction in the body undergoing conjugation (glucuronic acid, sulphuric acid)",in vivo,80-85%
same,plasma half-life,in vivo,1.2 to 3.0 h
same,time to peak plasma concentrations,oral administration of immediate release acetaminophen preparations,0.167 to 1 h
CN[C@@H](C)[C@@H](O)c1ccccc1 [pseudoephedrine],time to peak plasma concentrations,60-mg dose as an oral solution,1.39 to 2.0 h
same,time to peak plasma concentrations,120-mg dose as an oral solution,1.84 to 1.97 h
same,time to peak plasma concentrations,extended-release products,3.8 to 6.1 h
same,fraction of a dose excreted unchanged in urine,in vivo,55-96%
same,elimination half-life,urinary pH 5,3 to 6 h
same,elimination half-life,urinary pH 5.8,5 to 8 h
same,elimination half-life,urinary pH 8,9 to 16 h
CNC[C@H](O)c1cccc(O)c1 [phenylephrine],efficacy compared with pseudoephedrine,[1],less efficacious than pseudoephedrine
same,elimination half-life,in vivo,2 to 3 h
same,bioavailability following oral administration,oral,approximately 38%
same,time of peak serum concentrations,oral,0.75 to 2.0 h
same,duration of nasal decongestion,nasal congestion; oral phenylephrine,2 to 4 h
same,onset of nasal decongestion,nasal congestion; oral phenylephrine,15 to 20 min
CNC[C@H](O)c1cccc(O)c1 [phenylephrine hydrochloride],pKa,[2],8.86
"CC(C)Cc1ccc(C(C)C(=O)O)cc1 (centres unmarked) [ibuprofen, 2-[4-(2-methylpropyl)phenyl]propanoic acid]",time to reach maximal plasma concentration,conventional tablets,approximately 120 minutes
same,time until excretion is essentially complete,following oral administration,≤ 24 h
same,fraction of an oral dose absorbed from the GI tract,"in vivo, po",Approximately 80%
same,reduction of peak plasma concentrations when administered with food,with food,30-50%
same,change of time to achieve peak plasma concentrations when administered with food,"with food, given as 'reduced by'",30 to 60 min
same,onset of antipyretic effect,fever; [3],≤ 1 h
same,time of peak antipyretic effect,fever; [3],2 to 4 h
same,duration of antipyretic effect,fever; single ibuprofen suspension doses of 10-mg/kg,up to 8 hours
CN[C@@H](C)[C@@H](O)c1ccccc1 [pseudoephedrine hydrochloride],duration of nasal decongestion,nasal congestion; 120 mg in extended-release capsules,up to 12 hours
same,duration of nasal decongestion,nasal congestion; oral administration of 60 mg,8 h
same,duration of nasal decongestion,nasal congestion; [4],4 to 6 h
same,onset of nasal decongestion,nasal congestion; [4],≤ 30 min
